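Interpolation was linear, between the two tested concentrations surrounding the appropriate level; five concentrations were tested over 48 hours in 96-well plates. At the TGI there is no net growth.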 Where a SMILES comes first, the peptide text is derived from it. The star is where a group is joined. Boc = CC(C)(C)OC(=O)*; OBn = c1ccc(CO*)cc1
Tests used:
Assay in all cases: NCI tumour cell line growth inhibition, 48 h
MDA-MB-231 breast = test system: MDA-MB-231 breast
MOLT-4 leukemia = test system: MOLT-4 leukemia
NCI-H522 lung = test system: NCI-H522 lung
OVCAR-4 ovarian = test system: OVCAR-4 ovarian
RPMI-8226 leukemia = test system: RPMI-8226 leukemia
SN12C renal = test system: SN12C renal
TK-10 renal = test system: TK-10 renal
UACC-257 melanoma = test system: UACC-257 melanoma
UO-31 renal = test system: UO-31 renal
LOX IMVI melanoma = test system: LOX IMVI melanoma

| SMILES | TGI (MDA-MB-231 breast) | TGI (MOLT-4 leukemia) | TGI (NCI-H522 lung) | TGI (OVCAR-4 ovarian) | TGI (RPMI-8226 leukemia) | TGI (SN12C renal) | TGI (TK-10 renal) | TGI (UACC-257 melanoma) | TGI (UO-31 renal) | TGI (LOX IMVI melanoma) |
| --- | --- | --- | --- | --- | --- | --- | --- | --- | --- | --- |
| COc1ccc(N=N/C(=N/NC(=O)c2ccccc2)c2ccc(N(CCC#N)CCC#N)cc2C)cc1 | > 100 µM | > 100 µM | 36.1 µM | > 100 µM | > 100 µM | > 100 µM | > 100 µM | > 100 µM | > 100 µM | – |
| CN(C)Cc1cc(O)c(O)c(CN(C)C)c1 | > 100 µM | > 100 µM | > 100 µM | > 100 µM | > 100 µM | > 100 µM | > 100 µM | 45.9 µM | > 100 µM | > 100 µM |
| Oc1ccc(SCc2cc(O)c(O)c(O)c2)cc1 | > 100 µM | > 100 µM | 61.4 µM | – | 78.6 µM | 74.9 µM | > 100 µM | > 100 µM | > 100 µM | > 100 µM |
| Cc1[nH]c2ccccc2c1C=Nc1ccc(N=Cc2c(C)[nH]c3ccccc23)cc1 | > 100 µM | 43.1 µM | 41.9 µM | > 100 µM | 45.3 µM | > 100 µM | > 100 µM | > 100 µM | > 100 µM | 36.5 µM |
| CC[C@H](C)[C@H]1NC(=O)[C@@H](NC(=O)[C@@H](CC(C)C)N(C)CC2CCCN2C(=O)C(C)=O)[C@@H](C)OC(=O)[C@H](Cc2ccc(OC)cc2)N(C)C(=O)C2CCCN2C(=O)[C@H](CC(C)C)NC(=O)[C@@H](C)C(=O)[C@H](C(C)C)OC(=O)C[C@@H]1O (stereo partly drawn) | 0.0251 µM | 0.00608 µM | 0.0523 µM | 0.00687 µM | 0.00697 µM | 0.0301 µM | 0.0202 µM | 0.0128 µM | 0.0862 µM | 0.00861 µM |
| O=C1C(Br)=CC2(C=C1Br)CCNC1=C2C(=O)c2cccnc2C1=O | 31.1 µM | 24.9 µM | 13.9 µM | 31.2 µM | 36.9 µM | 25.1 µM | 35.9 µM | 21.3 µM | 68.5 µM | 18.9 µM |
| CC(C)c1ccc(/C=C2\CSCC3=C2NC(=S)NC3c2ccc(C(C)C)cc2)cc1 (stereo not drawn) | > 100 µM | > 100 µM | > 100 µM | > 100 µM | > 100 µM | > 100 µM | > 100 µM | > 100 µM | > 100 µM | > 100 µM |
| Cc1sc(/N=C/c2c[nH]c3ccccc23)c(C#N)c1C | > 100 µM | > 100 µM | > 100 µM | > 100 µM | > 100 µM | > 100 µM | 74.9 µM | > 100 µM | > 100 µM | > 100 µM |
| CN(NC(=O)CCCl)C1=NCCCCN1 | > 100 µM | > 100 µM | > 100 µM | > 100 µM | > 100 µM | > 100 µM | > 100 µM | > 100 µM | > 100 µM | > 100 µM |
| CC(=O)OC(OC(C)=O)n1cc(C=O)c2ccccc21 | > 100 µM | > 100 µM | > 100 µM | > 100 µM | > 100 µM | > 100 µM | > 100 µM | > 100 µM | > 100 µM | > 100 µM |
| O=C(OCc1ccccc1)C1(N2CN(C3(C(=O)OCc4ccccc4)CCCC3)CN(C3(C(=O)OCc4ccccc4)CCCC3)C2)CCCC1 | > 10 µM | > 10 µM | > 10 µM | > 10 µM | > 10 µM | > 10 µM | > 10 µM | > 10 µM | > 10 µM | > 10 µM |
| CC(C)(C)C1(COC(=O)c2ccc(N)cc2)COC1 | > 100 µM | > 100 µM | > 100 µM | > 100 µM | > 100 µM | > 100 µM | > 100 µM | > 100 µM | > 100 µM | > 100 µM |
| NC(=O)c1ccc2c(c1)S(=O)(=O)c1ccccc1C2=O | > 100 µM | > 100 µM | > 100 µM | > 100 µM | > 100 µM | > 100 µM | > 100 µM | > 100 µM | > 100 µM | > 100 µM |
| CC(NC(=O)C(NC(=O)OC(C)(C)C)C(C)C)C(=O)N1CCCC1C(=O)NCC(=O)NC(C(=O)NCC(=O)OCc1ccccc1)C(C)C (stereo not drawn) (Boc-VAPGVG-OBn; configuration not given here) | > 100 µM | – | > 100 µM | > 100 µM | > 100 µM | > 100 µM | > 100 µM | > 100 µM | > 100 µM | > 100 µM |
| Cc1nc2ccc(S(=O)(=O)O)cc2c(=O)n1-c1ccc(C(=O)NN2C(=O)C(Cl)C2c2ccccc2O)cc1 (stereo not drawn) | > 100 µM | > 100 µM | > 100 µM | > 100 µM | > 100 µM | > 100 µM | > 100 µM | > 100 µM | > 100 µM | > 100 µM |
| COC(OC)C1OC(CO)C(n2ccc(N)nc2=O)C1O (stereo not drawn) | > 100 µM | > 100 µM | > 100 µM | > 100 µM | > 100 µM | > 100 µM | > 100 µM | > 100 µM | > 100 µM | > 100 µM |
| C=CCSC1=N/C(=C\c2ccccc2)C(=O)N1CC=C | > 100 µM | 19.1 µM | > 100 µM | > 100 µM | > 62.3 µM | > 100 µM | > 100 µM | > 82.5 µM | > 100 µM | > 81.3 µM |
| O=c1c(C=Nc2ccc([N+](=O)[O-])cc2)c(O)n(-c2ccccc2)c(=O)n1-c1ccccc1 | > 100 µM | > 100 µM | > 100 µM | > 100 µM | > 100 µM | > 100 µM | > 100 µM | > 100 µM | > 100 µM | > 100 µM |
| COC(=O)n1c(=O)n(-c2ccccc2)c(=O)n1C(=O)OC | > 100 µM | > 100 µM | > 100 µM | > 100 µM | > 100 µM | > 100 µM | > 100 µM | > 100 µM | > 100 µM | > 100 µM |
| COC(=O)/C=C1\CCC(C)(C(=O)NS(=O)(=O)c2ccc(C)cc2)C1(C)C (stereo not drawn) | > 100 µM | > 100 µM | > 100 µM | > 100 µM | > 100 µM | > 100 µM | > 100 µM | > 100 µM | > 100 µM | > 100 µM |
| O=c1[nH]nc(-c2ccccc2)n1/N=C/c1c(O)ccc2ccccc12 | > 100 µM | > 100 µM | > 100 µM | 45.7 µM | > 100 µM | > 100 µM | > 100 µM | > 100 µM | > 100 µM | > 100 µM |
| O=S1(=O)c2ccccc2C(=NO)c2ccccc21 | > 100 µM | > 100 µM | > 100 µM | > 100 µM | > 100 µM | > 100 µM | > 100 µM | > 100 µM | > 100 µM | > 100 µM |
| NC(=S)Nc1[nH]c(=S)nc2c1SC1=N/C(=C\c3ccco3)C(=O)N12 | > 100 µM | > 100 µM | > 100 µM | > 100 µM | > 90.6 µM | > 100 µM | > 100 µM | > 100 µM | > 100 µM | > 100 µM |
| C=C(C)C(=O)[C@@]12C(=O)[C@@H](C)CC[C@H]1[C@H](C)C[C@@H]2C=C(C)C | 51.3 µM | 65.7 µM | 27.7 µM | > 100 µM | > 100 µM | 40.7 µM | > 100 µM | 33.5 µM | 43 µM | 37 µM |
| COC(=O)/C=C(/C(=O)OC)c1c(C)c(C)c2c(C)cc(C)cc(C)c1-2 | > 100 µM | > 100 µM | 52.3 µM | > 100 µM | > 100 µM | > 100 µM | > 100 µM | > 100 µM | > 100 µM | > 100 µM |
| CCCCCCCCCCCCCCCCCCNc1ccn(C2OC(COP(=O)(O)OCC3OC(n4cc(C)c(=O)[nH]c4=O)CC3N=[N+]=[N-])C(O)C2O)c(=O)n1 (stereo not drawn) | 56.7 µM | 44.4 µM | 30.7 µM | 83.9 µM | 32.7 µM | 48.1 µM | 69.5 µM | 76.3 µM | 58.8 µM | 37.8 µM |
| O=C(CCCCCCCCC(=O)N1C(=O)CC(=O)N(c2cccc(Cl)c2)C1=S)N1C(=O)CC(=O)N(c2cccc(Cl)c2)C1=S | 84.3 µM | 70.6 µM | 71.1 µM | > 100 µM | > 100 µM | > 100 µM | > 100 µM | > 100 µM | > 100 µM | > 100 µM |
| O=C1/C(=C/c2ccccc2[N+](=O)[O-])N=C(c2ccccc2)N1C1Nc2cc3c(cc2S1)NC(N1C(=O)/C(=C/c2ccccc2[N+](=O)[O-])N=C1c1ccccc1)S3 (stereo not drawn) | > 100 µM | > 100 µM | 77.9 µM | > 100 µM | 49.7 µM | – | > 100 µM | > 100 µM | > 100 µM | > 100 µM |
| COC(=O)c1cc(C#N)[nH]c1-c1ccc(C)s1 | > 100 µM | > 100 µM | 89.7 µM | > 100 µM | > 100 µM | > 100 µM | – | > 100 µM | > 100 µM | – |
| Cc1cn(CC2=NCC(C)(C)N2)c(=O)[nH]c1=O | > 100 µM | > 100 µM | > 100 µM | – | > 100 µM | > 100 µM | > 100 µM | > 100 µM | > 100 µM | > 100 µM |

— PubChem BioAssay (NCI)
